Laboratory results: the Kinase Knowledgebase extract (Sharma et al. 2016)

Columns and labels:
[1] = molecular target: MAPK14 (UniProt Q16539); assay: Inhibition of MAPK14 Kinase Activity
[2] = system: MAPK14 (Balb/c mice); assay: Animal Model; settings: dose or concentration not given here
[3] = molecular target: MAPK14 (human) (UniProt Q16539); assay: Inhibition of LPS Induced TNF-alpha Release in Human PBMC
MAPK14 (human), sequence (Q16539 whole entry, looked up): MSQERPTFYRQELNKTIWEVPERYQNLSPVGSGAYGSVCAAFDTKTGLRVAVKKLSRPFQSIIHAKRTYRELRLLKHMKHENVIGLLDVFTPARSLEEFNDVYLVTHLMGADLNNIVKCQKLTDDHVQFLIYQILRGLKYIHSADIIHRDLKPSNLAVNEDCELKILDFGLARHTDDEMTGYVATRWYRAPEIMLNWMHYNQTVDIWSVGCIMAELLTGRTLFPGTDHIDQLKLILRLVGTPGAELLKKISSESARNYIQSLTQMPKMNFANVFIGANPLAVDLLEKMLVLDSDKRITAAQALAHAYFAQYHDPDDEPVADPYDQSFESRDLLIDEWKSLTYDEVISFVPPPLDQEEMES

MAPK14, sequence (Q16539 whole entry, looked up): as above

Cc1ccc(NC(=O)c2cc(F)cc(N3CCOCC3)c2)cc1NC(=O)c1ccc(OCc2ccncc2)cc1
IC50 [1]: 17 nM

Cc1ccc(NC(=O)c2cc(F)cc(N3CCOCC3)c2)cc1NC(=O)c1ccc(OCc2ccccn2)cc1
IC50 [1]: 64 nM

Cc1ccc(NC(=O)c2cccc(N3CCOCC3)c2)cc1NC(=O)c1ccc(OCc2ccccc2)cc1
IC50 [1]: 37 nM

Cc1nc(COc2ccc(C(=O)Nc3cc(NC(=O)c4cc(F)cc(N5CCOCC5)c4)ccc3C)cc2)cs1
inhibition [2]: 0% | IC50 [1]: 97 nM

Cc1ccc(NC(=O)c2cccc(N3CCOCC3)c2)cc1NC(=O)c1ccc(OCc2ccncc2)cc1
IC50 [1]: 22 nM

Cc1nc(COc2ccc(C(=O)Nc3cc(NC(=O)c4cccc(N5CCOCC5)c4)ccc3C)cc2)cs1
IC50 [1]: 28 nM

COc1ccc(C(=O)Nc2cc(NC(=O)c3cccc(N(C)C)c3)ccc2C)cc1
IC50 [3]: > 50000 nM

Cc1ccc(NC(=O)c2cccc(N(C)C)c2)cc1NC(=O)c1ccc(O)cc1
IC50 [3]: > 50000 nM

COc1ccc(C(=O)Nc2cc(NC(=O)c3cccc(N(C)C)c3)ccc2C)c(OC)c1
IC50 [3]: > 50000 nM

Cc1ccc(NC(=O)c2cc(F)cc(N3CCOCC3)c2)cc1NC(=O)c1ccc(OCc2cscn2)cc1
IC50 [1]: 16 nM

Cc1ccc(NC(=O)c2cccc(N3CCOCC3)c2)cc1NC(=O)c1ccc(OCc2cccnc2)cc1
IC50 [1]: 95 nM
